target: T1, SOS1 (Homo sapiens, UniProt Q07889); assay: Bodipy-FL-GTP Association Assay (SOS1-mediated exchange of KRAS-4B:GDP to KRAS-4B:GTP); type: biochemical; conditions: SOS1-mediated BODIPY FL GTP exchange on KRAS-4B, 22° C.
T1 construct: SOS1 (Cytoskeleton Inc., Cat. CS-GE02); purchased Cytoskeleton Inc. CS-GE02
T1 sequence (Q07889 564-1049 limits assumed): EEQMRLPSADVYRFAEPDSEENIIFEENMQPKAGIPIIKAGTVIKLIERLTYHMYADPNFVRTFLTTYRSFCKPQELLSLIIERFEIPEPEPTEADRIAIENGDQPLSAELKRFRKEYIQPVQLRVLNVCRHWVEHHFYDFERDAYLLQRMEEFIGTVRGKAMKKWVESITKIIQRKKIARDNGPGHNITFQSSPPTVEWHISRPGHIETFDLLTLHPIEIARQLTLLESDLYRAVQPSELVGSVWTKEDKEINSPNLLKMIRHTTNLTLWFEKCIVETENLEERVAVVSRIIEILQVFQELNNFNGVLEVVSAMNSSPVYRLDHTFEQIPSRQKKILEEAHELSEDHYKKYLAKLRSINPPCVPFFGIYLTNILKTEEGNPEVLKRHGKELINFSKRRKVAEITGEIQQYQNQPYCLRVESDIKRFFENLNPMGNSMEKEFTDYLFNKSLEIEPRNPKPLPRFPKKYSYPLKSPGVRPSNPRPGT
Procedure: A low IC50 value for a given compound is indicative of high potency of said compound in inhibiting the guanine nucleotide exchange factor (GEF) activity of SOS1 on KRAS-4B in this assay setting.
Reagents: BODIPY FL GTP (ThermoFisher Scientific, Cat. G12411); KRAS4-B (Cytoskeleton Inc., Cat. CSRS03); SOS1 (Cytoskeleton Inc., Cat. CS-GE02); 2×Assay Buffer: 40 mM Tris-HCl, pH 7.5; 100 mM NaCl; 20 mM MgCl2; 0.1 mg/mL BSA; 0.02% NP-40
Assay Procedure: Test compounds were dissolved in DMSO to create 20 mM master stocks. The stocks were diluted in a 3× dilution series in 100% DMSO to achieve 100× compound stocks. A 1 μl spot of each test compound stock was delivered to two adjacent wells of a 96-well assay plate prior to running the assay. Reaction Mix preparation: The following were mixed in order at room temperature to obtain the “Reaction Mix” (5.75 mL 2× Exchange Buffer; 3.22 mL MilliQ ddH2O; 3 μL 5 mM BODIPY FL GTP; 230 μL 50 μM KRAS-4B; 9.203 mL Total volume. Reaction initiation: 80 μL of Reaction Mix was pipetted into each well of a half-area black 96-well plate (Corning, Cat. 3686) containing either a 1 μL spot of DMSO or a 1 μL spot test compound at the concentrations listed above. 20 μL of 1 μM SOS1 was then added to each well to initiate the reaction. For the no GEF control wells this was replaced with 1× exchange buffer. Kinetic measurement: The reaction was monitored in a SpectraMax M2 Microplate Reader (Molecular Devices) under the following protocol: 5 second rapid circular mixing before first read; 61 readings, 30 seconds apart; Assay temperature: 22° C.; Excitation wavelength: 485 nm; Emission wavelength: 513 nm. Data Analysis: The Vmax values for the SOS1-mediated BODIPY FL GTP exchange curves in the presence of test compounds were normalized to the most dilute test sample columns or DMSO only control wells to give the % Activity for each concentration of test compound. Plots of % Activity vs. the Log 10 of the compound concentration were fit by non-linear regression to a 4-parameter logistic model.

Row | Compound | IC50 [nM]
1 | Cc1nc2c(c(N[C@H](C)c3cc(N)cc(C(F)(F)F)c3)n1)CN(C(=O)N1CCOCC1)C2 [Example 4, N-[(1R)-1-[3-amino-5-(trifluoromethyl)phenyl]ethyl]-2-methyl-6-(morpholine-4-carbonyl)-5H,6H,7H-pyrrolo[3,4-d]pyrimidin-4-amine] | < 1000
2 | Cc1nc2c(c(N[C@H](C)c3cc(N)cc(C(F)(F)F)c3)n1)CN(CC1CCOC1)C2 (some centres unmarked) [Example 13] | 1000 to 5000
3 | COc1nc2c(c(N[C@H](C)c3cc(N)cc(C(F)(F)F)c3)n1)CN(C(=O)N1CCOCC1)C2 [Example 14] | < 1000
4 | C[C@@H](Nc1ncnc2c1CN(C(=O)N1CCOCC1)C2)c1cc(N)cc(C(F)(F)F)c1 [Example 16] | < 1000
5 | C[C@@H](Nc1ncnc2c1CN(C(=O)C1CCN(C)CC1)C2)c1cc(N)cc(C(F)(F)F)c1 [Example 17] | < 1000
6 | C[C@@H](Nc1nc(Cl)nc2c1CN(C(=O)C1CCN(C)CC1)C2)c1cc(N)cc(C(F)(F)F)c1 [Example 18] | < 1000
7 | Cc1nc2c(c(N[C@H](C)c3cc(N)cc(C(F)(F)F)c3)n1)CN(C(=O)C1CCN(C)CC1)C2 [Example 21] | < 1000

Results, then the compound that gave them:

Row | IC50 [nM] | Compound
8 | < 1000 | C[C@@H](Nc1nc(Cl)nc2c1CN(C(=O)C1CCOC1)C2)c1cc(N)cc(C(F)(F)F)c1 (stereo partly drawn) [Example 5, N-[(1R)-1-[3-amino-5-(trifluoromethyl)phenyl]ethyl]-2-chloro-6-(oxolane-3-carbonyl)-5H,6H,7H-pyrrolo[3,4-d]pyrimidin-4-amine]
9 | 1000 to 5000 | Cc1nc2c(c(N[C@H](C)c3cc(N)cc(C(F)(F)F)c3)n1)CN(C(=O)[C@H]1CCOC1)CC2 [Example 6, N-[(1R)-1-[3-amino-5-(trifluoromethyl)phenyl]ethyl]-2-methyl-6-(oxolane-3-carbonyl)-5H,6H,7H,8H-pyrido[4,3-d]pyrimidin-4-amine]
10 | 1000 to 5000 | C[C@@H](Nc1nc(Cl)nc2c1CCN(C(=O)C1CCOC1)CC2)c1cc(N)cc(C(F)(F)F)c1 (stereo partly drawn) [Example 7, N-[(1R)-1-[3-amino-5-(trifluoromethyl)phenyl]ethyl]-2-chloro-7-(oxolane-3-carbonyl)-5H,6H,7H,8H,9H-pyrimido[4,5-d]azepin-4-amine]
11 | > 5000 | C[C@@H](Nc1nc(Cl)nc2c1CN([C@H]1CC[C@@H](O)CC1)C2)c1cc(N)cc(C(F)(F)F)c1 [Example 8, cis-4-(4-{[(1R)-1-[3-amino-5-(trifluoromethyl)phenyl]ethyl]amino}-2-chloro-5H,6H,7H-pyrrolo[3,4-d]pyrimidin-6-yl)cyclohexan-1-ol]
12 | > 5000 | C[C@@H](Nc1nc(Cl)nc2c1CN([C@H]1CC[C@H](O)CC1)C2)c1cc(N)cc(C(F)(F)F)c1 [Example 9, trans-4-(4-{[(1R)-1-[3-amino-5-(trifluoromethyl)phenyl]ethyl]amino}-2-chloro-5H,6H,7H-pyrrolo[3,4-d]pyrimidin-6-yl)cyclohexan-1-ol]
13 | 1000 to 5000 | C[C@@H](Nc1nc(Cl)nc2c1CN([C@H]1CC[C@@H](C(=O)N(C)C)CC1)C2)c1cc(N)cc(C(F)(F)F)c1 [Example 10, cis-4-(4-{[(1R)-1-[3-amino-5-(trifluoromethyl)phenyl]ethyl]amino}-2-chloro-5H,6H,7H-pyrrolo[3,4-d]pyrimidin-6-yl)-N,N-dimethylcyclohexane-1-carboxamide]
14 | 1000 to 5000 | C[C@@H](Nc1nc(Cl)nc2c1CCN(CC1CCOC1)CC2)c1cc(N)cc(C(F)(F)F)c1 (some centres unmarked) [Example 11]
15 | < 1000 | Cc1nc2c(c(N[C@H](C)c3cc(N)cc(C(F)(F)F)c3)n1)CN(CC1CCOC1)CC2 (some centres unmarked) [Example 12]
16 | 1000 to 5000 | C[C@@H](Nc1nc(O)nc2c1CN(C(=O)N1CCOCC1)C2)c1cc(N)cc(C(F)(F)F)c1 [Example 15]
17 | 1000 to 5000 | C[C@@H](Nc1nc(Cl)nc2c1CN([C@H]1CC[C@H](C(=O)N(C)C)CC1)C2)c1cc(N)cc(C(F)(F)F)c1 [Example 19]
18 | < 1000 | C[C@@H](Nc1nc(Cl)nc2c1CN(CC1CCOC1)C2)c1cc(N)cc(C(F)(F)F)c1 (some centres unmarked) [Example 20]

test system: NCI-H358 xenograft; assay: In vivo tumor cell growth, NSCLC NCI-H358 xenograft model; design: species or system female balb/c athymic nude mice; conditions: 10 mg/kg, repeated daily dosing, single agent
Procedure: Objective: To evaluate the efficacy of the SOS1 inhibitor Compound A alone and in combination with a KRAS G12C inhibitor MRTX1257 following oral administration in the human non-small cell lung cancer (NSCLC) NCI-H358 xenograft model in nude mice.
Methods: The effect of a SOS1 inhibitor of the present invention (Compound A) on tumor cell growth in vivo was evaluated in the NSCLC NCI-H358 xenograft model using female balb/c athymic nude mice (6-8 weeks old). Mice were implanted with H358 tumor cells in 50% matrigel (5^e6 cells/mouse) subcutaneously in the flank. Once tumors reached an average size of ˜200 mm^3, mice were randomized to treatment groups and administration of test article or vehicle (2% HPMC, 0.1% tween in 50 mM sodium citrate buffer pH 4). Body weight and tumor volume (using digital calipers) were measured twice a week until study endpoints. Compounds were administered by oral gavage daily.

Row | Compound | tumor growth inhibition, TGI [%]
19 | C=CC(=O)N1CCN(c2nc(OC[C@@H]3CCCN3C)nc3c2CCN(c2cccc4cccc(C)c24)C3)C[C@@H]1CC#N [MRTX1257] | 76

same assay, conditions: 50 mg/kg, H358 model

Row | Compound | tumor response
20 | C=CC(=O)N1CCN(c2nc(OC[C@@H]3CCCN3C)nc3c2CCN(c2cccc4cccc(C)c24)C3)C[C@@H]1CC#N [MRTX1257] | achieved regressions

From patent US20230096028A1, “BICYCLIC HETEROCYCLYL COMPOUNDS AND USES THEREOF” (Revolution Medicines, Inc., priority 2019, published 2023)
